In paper PMC6272715, “Discovery of Novel Small Molecule Anti-HCV Agents via the CypA Inhibitory Mechanism Using O-Acylation-Directed Lead Optimization” (Molecules, 2015):
Several values for one entry are separate records, joined by “and”; a condition that tells them apart may be missing. Identical values can stand only once. Like-named read-outs stand apart in the source and are kept apart here.

Key:
[1] = rats, intravenous injection of 25 (2 mg∙kg^−1)
[2] = PBS pH 7.4, 37 °C
[3] = Cell proliferation (cytotoxicity) assay, WST-1; assay type: cell-based; settings: human, Huh 7.5.1 cells
Protocol: Cell Proliferation Assay: Huh 7.5.1 cells were seeded at a density of 2 × 10^4 cells per well in 96-well plates overnight. The cells were respectively incubated with serial diluted compounds for 48 h, and the viability of Huh7.5.1 cells was determined in 96-well tissue culture plates using cell proliferation reagent WST-1 (Roche, Basel, Switzerland). The absorbance (OD450 /reference OD630) was measured to detect the cytotoxicity of compounds, according to the manufacturer’s protocol of Cell Proliferation Reagent WST-1.

hERG channels = molecular target: T1, hERG channels (Homo sapiens, UniProt Q12809); test: hERG cardiac toxicity assay (automated QPatch, CHO cells expressing hERG); assay type: cell-based; settings: QPatch whole-cell recording
T1 construct: expressed in transfected cells; host or cells: CHO cells, stably transfected
Protocol: After intravenous administration, blood samples (0.2 mL) were collected at designated time points (0, 5, 15, 30, 45 min, 1, 2, 3, 5, 8, 12 and 24 h) from the eye venous sinus of the rats. The blood samples were centrifuged at 14800 rpm for 10 min to obtain the plasma fraction. The plasma samples were kept frozen (−20 °C) until analysis by a liquid chromatography-tandem mass spectrometry (LC-MS/MS).
Table S3. Pharmacokinetic parameters after intravenous administration of 25 to SD rats at […]
Pharmacokinetic Parameters 25 (Intravenous Injection of 2 mg 25/kg) Rat 1 Rat 2 a Rat 3 Mean ± SD […]
1 (intravenous injection of 2mg 25/kg) Rat 1 Rat 2 a Rat 3 Mean ± SD […]
a Rat 2: parts of the sample of 25 was injected into the subcutaneous tissues which lead to the uncertainty of the plasma concentration, so this rat was not incorporated into the calculation of pharmacokinetic parameters; b Cmax: maximum plasma concentration taken directly from measured values; c Tmax: time to reach Cmax; d AUC0-∞: integrated area under plasma concentration vs. time curve from time 0 to time infinity; e MRT: mean residence time; f t1/2: half-life. g N: parts of the data below the LLOQ, that result in the uncertainty of the pharmacokinetic parameters. hERG Cardiac Toxicity Assay of Compound 25 […]
After achieving break-in (whole-cell) configuration, the cells were recorded for 120 s to assess current stability. […]

JFH1-2a (S282T) virus = test: HCV virus assay, mutant JFH1-2a (S282T) virus strain; assay type: cell-based; settings: Hepatitis C virus, read-out: Anti-HCV Activity (Virus Assay) EC50 ± SD JFH1-2a (S282T)
[4] = test system: JFH1-2a virus (wild type); test: HCV virus assay, JFH1-2a wild type, Huh 7.5.1 cells; settings: Hepatitis C virus
HCV Con1-1b replicon = test: HCV Con1-1b subgenomic replicon assay; assay type: cell-based; settings: Hepatitis C virus; Table 4; read-out: Anti-HCV Activity EC50 ± SD Replicon Assay Con1-1b
HCV JFH1-2a replicon = test: HCV JFH1-2a subgenomic replicon assay (Renilla luciferase, Huh 7.5.1 replicon cells); assay type: cell-based; settings: Hepatitis C virus, Table 4, read-out: Anti-HCV Activity EC50 ± SD Replicon Assay JFH1-2a

T1 sequence (Q12809 whole entry): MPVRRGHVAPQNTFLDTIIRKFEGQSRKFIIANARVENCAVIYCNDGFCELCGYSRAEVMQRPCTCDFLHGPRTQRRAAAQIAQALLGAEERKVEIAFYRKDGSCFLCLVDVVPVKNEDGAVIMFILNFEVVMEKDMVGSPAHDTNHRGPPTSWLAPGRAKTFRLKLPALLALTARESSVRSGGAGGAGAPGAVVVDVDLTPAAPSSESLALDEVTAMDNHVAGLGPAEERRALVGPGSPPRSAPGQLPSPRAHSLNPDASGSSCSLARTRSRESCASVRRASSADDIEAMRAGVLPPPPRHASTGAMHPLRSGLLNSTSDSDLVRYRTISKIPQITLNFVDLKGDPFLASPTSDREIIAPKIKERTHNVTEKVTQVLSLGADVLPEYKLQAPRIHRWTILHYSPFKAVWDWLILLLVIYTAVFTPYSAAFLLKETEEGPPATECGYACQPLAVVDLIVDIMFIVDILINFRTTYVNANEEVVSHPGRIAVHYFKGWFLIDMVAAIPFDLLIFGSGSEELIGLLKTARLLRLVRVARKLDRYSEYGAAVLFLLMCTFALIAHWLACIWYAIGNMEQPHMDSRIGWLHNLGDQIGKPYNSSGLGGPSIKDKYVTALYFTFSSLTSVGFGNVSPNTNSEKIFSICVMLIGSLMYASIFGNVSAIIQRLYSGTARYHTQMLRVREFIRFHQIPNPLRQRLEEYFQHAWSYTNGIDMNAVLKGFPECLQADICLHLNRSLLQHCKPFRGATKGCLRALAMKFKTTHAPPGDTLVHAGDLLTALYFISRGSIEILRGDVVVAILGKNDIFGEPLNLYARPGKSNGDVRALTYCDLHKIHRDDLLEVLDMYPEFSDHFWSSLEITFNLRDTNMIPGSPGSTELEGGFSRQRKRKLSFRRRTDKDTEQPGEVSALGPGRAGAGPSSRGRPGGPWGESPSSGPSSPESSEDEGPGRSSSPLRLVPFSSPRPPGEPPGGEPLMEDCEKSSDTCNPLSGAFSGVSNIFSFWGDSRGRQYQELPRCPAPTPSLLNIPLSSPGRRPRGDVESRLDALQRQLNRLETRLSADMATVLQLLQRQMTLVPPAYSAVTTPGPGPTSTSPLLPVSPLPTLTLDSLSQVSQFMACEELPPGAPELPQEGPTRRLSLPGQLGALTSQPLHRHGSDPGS

## CCCCCCCC(=O)Oc1cccc(O)c1C(=O)NC(=O)NC1c2ccccc2-c2ccccc21 [Compound 25, 1-(2-Hydroxy-6-n-Octanoyloxybenzoyl)-3-(9H-fluoren-9-yl)-urea]
[1]
  plasma concentration after 5 min (mean ± SD): 20.47 ± 9.99 ng/mL
[2]; 0 h
  25 Content: 100%
[2]; 0.5 h
  25 Content: 99.79%
[2]; 1.0 h
  25 Content: 100.13%
[2]; 1.5 h
  25 Content: 99.76%
[2]; 2.0 h
  25 Content: 100.72%
[2]; 3.0 h
  25 Content: 100.67%
[2]; 3.5 h
  25 Content: 100.93%
[2]; 4.0 h
  25 Content: 100.74%
[2]; 5.0 h
  25 Content: 100.21%
[2]; 6.0 h
  25 Content: 100.24%
[2]; 7.0 h
  25 Content: 100.34%
[2]; 8.0 h
  25 Content: 100.30%
[2]; 9.0 h
  25 Content: 99.29%
[2]; 10.0 h
  25 Content: 98.88%
[2]; 11.0 h
  25 Content: 98.43%
[2]; 12.0 h
  25 Content: 98.65% and 98.6%
other
  melting point: 184 to 189 °C
[3]; Table 4, 48 h
  CC50 at 48 h: > 16000 nM
[3]; Table 5
  CC50 at 48 h: > 20000 nM
hERG channels
  IC50: > 15000 nM
JFH1-2a (S282T) virus
  EC50: 290 ± 70 nM
[4]; Huh-7.5.1, read-out: Anti-HCV Activity (Virus Assay) EC50 ± SD JFH1-2a (Wild Type)
  EC50: 270 ± 90 nM
[4]; Huh-7.5.1, read-out: Anti-HCV Activity EC50 ± SD Virus Assay JFH1-2a
  EC50: 190 ± 80 nM
HCV Con1-1b replicon
  EC50: 810 ± 240 nM
HCV JFH1-2a replicon
  EC50: 450 ± 80 nM
